Test results from patent publication US20080318781A1, “Method of Controlling Weeds” (priority 2005, published 2008).

Key:
Format in all cases: in vivo
[1] = test system: glyphosate resistant soybeans; assay: Example 1 field test, pre-plant treatment: phytotoxicity in crop; conditions: 44 days after treatment, crop planted at 15 DAT, use rate g/ha: glyphosate 870, I.7 25, I.7 + glyphosate 25 + 870, I.7 + imazethapyr 25 + 70, 0 = no damage, 100 = complete destruction
Description: (§1) The phenyluracils I and/or the other active ingredients according to the present invention were formulated in a suitable way, either separately or in mixture, e.g. as emulsifiable concentrates (EC), soluble concentrates (SL), suspo-emulsions (SE), suspension concentrates (SC) or water-dispersible granules (WG). The formulation(s) were suspended or emulsified in water as a distribution medium immediately prior to spraying. Afterwards, the aqueous mixture was evenly sprayed on the test plots by means of finely distributing nozzles.
(§2) The test plots were of uniform size (typically between 14 and 37 square meters, each) and the distribution of treated and untreated plots was organized according to a randomised bloc design. Crops were sown in rows at a season which was typical for the region and the crop according to usual farm practice. Weeds were not sown but germinated according to the natural infestation.
(§3) For pre-plant and pre-plant burn-down treatments, the plots were treated before the crop was planted, typically 7 to 28 days prior to planting. For pre-emergence treatments, the plots were treated at planting (plus or minus two days) but before emergence. For post-emergence or in-crop treatments, the plots were treated after the emergence of the weed or crop, typically 20 to 50 days after planting. […]

[2] = test system: glyphosate resistant soybeans; assay: Example 2 field test, pre-plant burn-down treatment followed by in-crop glyphosate: phytotoxicity in crop; conditions: 86 days after first treatment; pre-plant burn-down (glyphosate 870 g/ha or I.7 50 g/ha), followed by glyphosate 870 g/ha at 53 DAT; crop planted at 8 DAT
Description: as §1, §2, §3

[3] = test system: glyphosate resistant soybeans; assay: Example 3 field test, pre-plant treatment followed by in-crop glyphosate: phytotoxicity in crop; conditions: 57 days after first treatment; pre-plant (glyphosate 870; I.7 25; I.7 + glyphosate 25 + 870; I.7 + imazethapyr 25 + 70 g/ha), followed by glyphosate 870 g/ha at 42 DAT; crop planted at 12 DAT
Description: as §1, §2, §3

Giant ragweed (AMBTR) [4] = assay: Example 3 field test, pre-plant treatment followed by in-crop glyphosate: weed control; conditions: 57 days after first treatment; pre-plant (glyphosate 870; I.7 25; I.7 + glyphosate 25 + 870; I.7 + imazethapyr 25 + 70 g/ha), followed by glyphosate 870 g/ha at 42 DAT
Description: as §1, §2, §3

[5] = test system: Common lambsquarters (CHEAL); assay: as above; conditions: 57 days after first treatment; pre-plant (glyphosate 870; I.7 25; I.7 + glyphosate 25 + 870; I.7 + imazethapyr 25 + 70 g/ha), followed by glyphosate 870 g/ha at 42 DAT
Description: as §1, §2, §3

Giant ragweed (AMBTR) [6] = assay: Example 2 field test, pre-plant burn-down treatment followed by in-crop glyphosate: weed control; conditions: 86 days after first treatment; pre-plant burn-down (glyphosate 870 g/ha or I.7 50 g/ha), followed by glyphosate 870 g/ha at 53 DAT
Description: as §1, §2
(§4) For pre-plant and pre-plant burn-down treatments, the plots were treated before the crop was planted, typically 7 to 28 days prior to planting. For pre-emergence treatments, the plots were treated at planting (plus or minus two days) but before emergence. For post-emergence or in-crop treatments, the plots were treated after the emergence of the weed or crop, typically 20 to 50 days after planting.
(§5) The evaluation of the damage caused by the phenyluracils I and/or the other active ingredients according to the present invention was carried out using a scale from 0 to 100%, compared to the untreated control plots. Here, 0 means no damage and 100 means complete destruction of the plants of a respective weed or crop species.
(§6) Weed control in glyphosate resistant soybeans 86 days after the first treatment; pre-plant burn-down treatment followed by an in-crop glyphosate treatment at 53 DAT; field test.
(§7) In this example, glyphosate (potassium salt) was formulated as a 540 g/l SL and phenyluracil I.7 as a 120 g/l EC. […]

Velvetleaf (ABUTH) [7] = assay: as above; conditions: 86 days after first treatment; pre-plant burn-down (glyphosate 870 g/ha or I.7 50 g/ha), followed by glyphosate 870 g/ha at 53 DAT
Description: as §1, §2, §4, §5, §6, §7

[8] = test system: Common lambsquarters (CHEAL); assay: as above; conditions: 86 days after first treatment; pre-plant burn-down (glyphosate 870 g/ha or I.7 50 g/ha), followed by glyphosate 870 g/ha at 53 DAT
Description: as §1, §2, §4, §5, §6, §7

Giant ragweed (AMBTR) [9] = assay: Example 1 field test, pre-plant treatment: weed control; conditions: 44 days after treatment, use rate g/ha: glyphosate 870, I.7 25, I.7 + glyphosate 25 + 870, I.7 + imazethapyr 25 + 70
Description: as §1, §2, §3

Velvetleaf (ABUTH) [10] = assay: as above; conditions: 44 days after treatment, use rate g/ha: glyphosate 870, I.7 25, I.7 + glyphosate 25 + 870, I.7 + imazethapyr 25 + 70
Description: as §1, §2, §3

O=C(O)CNCP(=O)(O)O [Glyphosate, glyphosate]
Phytotoxicity in glyphosate resistant soybeans (% damage) [1]: 0%
Phytotoxicity in glyphosate resistant soybeans (% damage) [2]: 0%
Phytotoxicity in glyphosate resistant soybeans (% damage) [3]: 0%
Weed control (% control) Giant ragweed (AMBTR) (Giant ragweed (AMBTR) [4]): 72%
Weed control (% control) Common lambsquarters (CHEAL) [5]: 83%
Weed control (% control) Giant ragweed (AMBTR) (Giant ragweed (AMBTR) [6]): 86%
Weed control (% control) Velvetleaf (ABUTH) (Velvetleaf (ABUTH) [7]): 91%
Weed control (% control) Common lambsquarters (CHEAL) [8]: 89%
Weed control (% control) Giant ragweed (AMBTR) (Giant ragweed (AMBTR) [9]): 86%
Weed control (% control) Velvetleaf (ABUTH) (Velvetleaf (ABUTH) [10]): 17%
